Experimental data: patent US5601806A, “Methods for scavenging active oxygen compounds and preventing damage from ultra violet B rays using taurine analogues” (Sogo Pharmaceutical Company Limited, priority 1991, dated 1997)

Experiments:
[1] = SOD-mimic functions of thiotaurine (xanthine-xanthine oxidase-NBT method); format: biochemical
Text: Experimental method: Measurement of the SOD-mimic functions was done, with slight modifications, according to the Xanthine-xanthine oxidase-nitrobluetetrazolium (NBT) method described in Lipid Peroxide Experiments (edited by N. Kaneda, N. Ueda, Ishiyaku Press, p. 144). The measurement is based on measuring at 560 nm the amount of formazan produced by the reduction of NBT with a superoxide which results from the oxidation of xanthine with xanthine oxidase, and calculating the activation thereof. The modification involved irradiation with UVB ([…], 1.8 J/cm^2, 313 nm) for 5 minutes while simultaneously adding the xanthine oxidase, in order to interrupt the reaction.

SOD = SOD (Bos taurus, UniProt P00442); test: SOD activating function; format: biochemical; conditions: read-out: SOD activating function (SOD activation rate)
Procedure: Next, a measurement was made of the SOD activating function.
Method of measurement of SOD activating function
Test Comp. 0.1 0.1 -- --
Preincubate 25° C., 10 min.
UVB radiation, 6.0 mw/cm^2, 5 min. (1.8 J/cm^2)
(1) System for observing whether the consumption of superoxides by SOD is
further increased with the test composition.
(3) System for inhibiting XOD reaction with SOD. XOD reaction was 20%
(4) System for a complete, uninhibited XOD reaction.
The SOD activation rates of the test compositions were calculated using the equation listed as Equation 1 below, and the results shown in Table 3 were obtained. [formula]

[2] = Reactivity with ^1 O2 in riboflavin, rose bengal and methylene blue/h.nu.-systems with DABCO; format: biochemical; conditions: DABCO as quencher
Text: Therefore, the 3 systems listed below were used in identical experiments.
1. Riboflavin/h.nu.-system, 1,4-diazabicyclooctane (DABCO) as ^1 O2 quencher
2. Rose bengal/h.nu.-system DABCO as ^1 O2 quencher
3. Methylene blue/h.nu.-system DABCO as ^1 O2 eliminator

[3] = Lipid peroxide production inhibitory effect; format: biochemical
Procedure: Fifty ml of a solution prepared by combining a solution of 12.5 mg of methyl linoleate, 2.5 mg of Rf and 2-70 mg of thiotaurine in ethanol with a wing buffer solution, and the resulting solution was subjected to light irradiation as in Experiment 2. After a determined period of time a sample was recovered, and the lipid peroxides were measured using the Yagi method.

[4] = Effect on hydrocortisone induced chick embryo cataract; format: in vivo, White leghorn chick embryos; conditions: HC 0.12 mg/egg
Procedure: White leghorn chick embryos were incubated in an incubator at a temperature of 37° C. and a humidity of approximately 70%. Then a solution of 0.12 mg of hydrocortisone succinate (HC) in 0.2 ml of purified water was administered through the air chambers of the eggs of the control group and the test group on the 15th day of incubation. Thiotaurine was then given to the test group 2 hours, or 2 and 5 hours, after HC administration.
The lenses were removed 8 hours after HC administration, and the presence of cataracts was judged according to the criteria listed in Table 8, using the method of Nishikuni, et. al. (Investigative Opthamology and Visual Science, 25, p. 1051, 1984).
I. Lens was clear and indistinguishable from control.
IV: Pinhole-sized clear area in an opaque nucleus.

[5] = Effect on alloxan diabetes; format: in vivo, Wistar Imamichi rats; conditions: 500 mg/kg oral once a day, 2 weeks
Procedure: Thiotaurine was orally administered in an amount of 500 mg/kg once a day to Wistar Imamichi rats, for a period of 2 weeks. Three days prior to the last administration of the medicine feeding of the rats was stopped for 16 hours, and alloxan dissolved in chilled physiological saline was intravenously injected at an amount of 75 mg/kg. One hour after the last administration of the medicine, the rats were killed, their blood was obtained, and a measurement was made of the triglycerides and blood sugar in the blood, using the enzyme method.

[6] = Long-term administration to rats, 180 days; format: in vivo; conditions: 200 mg/kg every day
Text: The active ingredient compound according to the present invention, an aminothiosulfonic acid, not only functions as a light shield and as a production inhibitor or scavenger of lipid peroxides and active oxygen, but since it and its decomposition products are structurally similar to compounds which are naturally present in the body including taurine, etc. (C.R. Acad. Sci., Ser. 3, 302 (13) 503-8: Presence of Large Quantities of Thiotaurine and Hypotaurine in the Tissues of Riftia pachyptila), its toxicity is extremely low making it a safe substance.

in vivo = conditions: rat, SD male and female rats, oral
bacteria = format: cell-based; conditions: coexistence or non-coexistence with S9Mix
[7] = Primary skin irritation test; format: in vivo; conditions: rabbits
Procedure: (§1) In addition, the result was determined to be negative in both a primary skin irritation test and an eye irritation test using rabbits.

[8] = parameters: species or system rabbits; conditions: rabbit, in vivo
Procedure: as §1

[9] = alloxan 75 mg/kg i.v., P < 0.05 vs control group

SOD, sequence (P00442 whole entry): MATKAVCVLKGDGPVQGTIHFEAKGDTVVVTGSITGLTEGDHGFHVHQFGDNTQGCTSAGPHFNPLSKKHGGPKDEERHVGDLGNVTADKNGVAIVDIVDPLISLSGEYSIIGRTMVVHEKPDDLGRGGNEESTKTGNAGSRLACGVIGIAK

SMILES: NCCS(=O)(O)=S [thiotaurine, Aminoethyl thiosulfonate]
- Superoxide production inhibition rate ([1]; 10^-2 M/reaction solution): 34.4%
- Superoxide production inhibition rate ([1]; 10^-3 M/reaction solution): 34.7%
- Superoxide production inhibition rate ([1]; 10^-4 M/reaction solution): 43.2%
- Superoxide production inhibition rate ([1]; 10^-5 M/reaction solution): 35.7%
- Superoxide production inhibition rate ([1]; 10^-6 M/reaction solution): 47.0%
- Superoxide production inhibition rate ([1]; 10^-7 M/reaction solution): 34.7%
- activation at 10000 µM (SOD; 10^-2 M/reaction solution): 65.8%
- activation at 1000 µM (SOD; 10^-3 M/reaction solution): 32.1%
- activation at 100 µM (SOD; 10^-4 M/reaction solution): 29.6%
- activation at 10 µM (SOD; 10^-5 M/reaction solution): 14.3%
- activation at 1 µM (SOD; 10^-6 M/reaction solution): 1.6%
- reaction with ^1 O2 [2]: reacts with ^1 O2 in all three systems
- prevention of production of lipid peroxides ([3]; 2.8×1/10^4 M, after 7.5 hours, 280 µM): approximately 50%
- prevention of production of lipid peroxides ([3]; 4×1/10^3 M, 4000 µM): ~100%
- Determination: lenses of grade II (faint opaque ring) ([4]; 0.5 mg × 1 time/egg): 6/8
- Determination: lenses of grade III (distinct opaque ring) ([4]; 0.5 mg × 1 time/egg): 2/8
- Determination: lenses of grade I (clear) ([4]; 1.0 mg × 1 time/egg): 2/8
- Determination: lenses of grade II (faint opaque ring) ([4]; 1.0 mg × 1 time/egg): 2/8
- Determination: lenses of grade III (distinct opaque ring) ([4]; 1.0 mg × 1 time/egg): 4/8
- Determination: lenses of grade I (clear) ([4]; 1.0 mg × 2 times/egg): 4/8
- Determination: lenses of grade II (faint opaque ring) ([4]; 1.0 mg × 2 times/egg): 4/8
- Determination: lenses of grade I (clear) ([4]; 2.0 mg × 2 times/egg): 4/8
- Determination: lenses of grade II (faint opaque ring) ([4]; 2.0 mg × 2 times/egg): 4/8
- increase of glucose suppressed to, compared with control [5]: 65%
- increase of triglycerides suppressed to, compared with control [5]: 70%
- Blood sugar [5, 9]: 769.1 ± 120.3 mg/dL
- Triglyceride [5, 9]: 363.8 ± 38.2 mg/dL
- Blood sugar relative to control group (100) ([5]; control = 100): 65
- Triglyceride relative to control group (100) ([5]; control = 100): 70
- change in the body weight curve [6]: no change in the body weight curve
- deaths [6]: no deaths at all
- LD50 (in vivo): > 2000 mg/kg
- mutagenicity (Ames Test) (bacteria): no mutagenecity was observed
- primary skin irritation [7]: negative
- eye irritation [8]: negative
